Test results from article PMC10369073, “Production, identification, in silico analysis, and cytoprotection on H2O2-induced HUVECs of novel angiotensin-I-converting enzyme inhibitory peptides from Skipjack tuna roes” (Frontiers in Nutrition, 2023).

Tests used:
HUVECs [1] = test: ET-1 secretion in HUVECs (assay kit); assay type: cell-based, human; settings: control 55.37 ± 2.53 pg./mL
Experimental: (§1) HUVECs were cultured in DMEM supplemented with 100 µg/mL streptomycin, 10% FBS (v/v), and 100 U/mL penicillin at 37°C in a humidified 5% CO2 atmosphere for 24 h.
(§2) After treating with ACEi peptides (TRP3, TRP6, TRP9, or TRP12, respectively) for 24 h, NO and ET-1 contents were separately determined by employing human NO and ET-1 assay kit as per manufactures’ protocol ([18]).

HUVECs [2] = test: NO production in HUVECs (assay kit); assay type: cell-based, human; settings: control 33.68 ± 0.96 μM
Experimental: as §1, §2

ACE [3] = target: T1, ACE (Oryctolagus cuniculus, UniProt P12822); settings: cited from earlier work; for IC50: read-out: ACEi IC50
T1 sequence (P12822 34-1310): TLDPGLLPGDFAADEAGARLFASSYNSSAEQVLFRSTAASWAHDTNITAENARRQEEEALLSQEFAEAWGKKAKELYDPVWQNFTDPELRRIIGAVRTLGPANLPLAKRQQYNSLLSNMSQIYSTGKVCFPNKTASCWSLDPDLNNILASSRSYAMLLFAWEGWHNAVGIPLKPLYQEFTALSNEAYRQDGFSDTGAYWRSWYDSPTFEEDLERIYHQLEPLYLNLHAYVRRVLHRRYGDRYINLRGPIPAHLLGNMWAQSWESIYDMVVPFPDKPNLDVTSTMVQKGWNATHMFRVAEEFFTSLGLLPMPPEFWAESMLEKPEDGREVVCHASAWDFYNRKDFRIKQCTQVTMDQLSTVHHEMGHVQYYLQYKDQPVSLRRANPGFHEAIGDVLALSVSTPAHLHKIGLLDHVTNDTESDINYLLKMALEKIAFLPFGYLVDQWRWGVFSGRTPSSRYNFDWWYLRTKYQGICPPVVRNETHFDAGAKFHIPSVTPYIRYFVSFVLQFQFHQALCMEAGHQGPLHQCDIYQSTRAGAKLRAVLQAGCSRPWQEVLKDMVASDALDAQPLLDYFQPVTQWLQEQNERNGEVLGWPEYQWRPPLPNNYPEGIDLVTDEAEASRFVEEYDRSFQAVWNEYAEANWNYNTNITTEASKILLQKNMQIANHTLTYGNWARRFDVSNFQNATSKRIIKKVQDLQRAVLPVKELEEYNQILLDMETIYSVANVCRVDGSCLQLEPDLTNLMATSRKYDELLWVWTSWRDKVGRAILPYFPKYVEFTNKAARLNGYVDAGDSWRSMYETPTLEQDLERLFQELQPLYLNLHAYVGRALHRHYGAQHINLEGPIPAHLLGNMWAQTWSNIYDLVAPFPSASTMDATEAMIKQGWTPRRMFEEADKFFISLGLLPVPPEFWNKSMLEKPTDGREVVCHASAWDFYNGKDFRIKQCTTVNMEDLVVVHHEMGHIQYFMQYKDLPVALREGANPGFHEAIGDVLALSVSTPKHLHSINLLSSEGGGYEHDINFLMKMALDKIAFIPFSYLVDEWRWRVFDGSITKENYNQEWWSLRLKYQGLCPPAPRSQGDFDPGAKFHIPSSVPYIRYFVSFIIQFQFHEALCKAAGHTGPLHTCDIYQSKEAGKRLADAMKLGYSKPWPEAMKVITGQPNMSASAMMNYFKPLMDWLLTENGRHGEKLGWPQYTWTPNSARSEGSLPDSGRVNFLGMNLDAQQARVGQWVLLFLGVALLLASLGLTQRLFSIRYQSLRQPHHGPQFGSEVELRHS
Text: Moreover, the C- and N-terminal amino acids are believed to play a crucial function in the activity of ACEi peptides ([21]). Yu et al. ([56]) reported that C-terminus (such as Trp, Tyr, Pro, or Phe) and N-terminus (such as Pro, Phe, Trp, or Met) hydrophobic amino acid residues have positive effects on the ACEi ...

ACE [4] = target: T1, ACE; settings: cited from earlier work
Text: Peptide size and amino acid sequence are two key factors affecting the ACEi ability of BPs ([17], [21]). Peptide size decides the affinity between BPs and ACE because big polypeptides cannot be accommodated in and access the narrow channel of ACE ([21]). For example, VPP and IPP can easily access and bind the Zn^2+ of ACE channel, but ALPMHIR has low binding scores with ACE because it uncomfortably accesses the narrow channel ([19]). In the experiment, TRP3, TRP6, TRP9, and TRP10 are tetrapeptides or pentapeptides, and small size increases their access to the active channel of ACE, and this ha ...

[5] = target: T2, angiotensin-I-converting enzyme (ACE) (UniProt P12822)
T2 sequence: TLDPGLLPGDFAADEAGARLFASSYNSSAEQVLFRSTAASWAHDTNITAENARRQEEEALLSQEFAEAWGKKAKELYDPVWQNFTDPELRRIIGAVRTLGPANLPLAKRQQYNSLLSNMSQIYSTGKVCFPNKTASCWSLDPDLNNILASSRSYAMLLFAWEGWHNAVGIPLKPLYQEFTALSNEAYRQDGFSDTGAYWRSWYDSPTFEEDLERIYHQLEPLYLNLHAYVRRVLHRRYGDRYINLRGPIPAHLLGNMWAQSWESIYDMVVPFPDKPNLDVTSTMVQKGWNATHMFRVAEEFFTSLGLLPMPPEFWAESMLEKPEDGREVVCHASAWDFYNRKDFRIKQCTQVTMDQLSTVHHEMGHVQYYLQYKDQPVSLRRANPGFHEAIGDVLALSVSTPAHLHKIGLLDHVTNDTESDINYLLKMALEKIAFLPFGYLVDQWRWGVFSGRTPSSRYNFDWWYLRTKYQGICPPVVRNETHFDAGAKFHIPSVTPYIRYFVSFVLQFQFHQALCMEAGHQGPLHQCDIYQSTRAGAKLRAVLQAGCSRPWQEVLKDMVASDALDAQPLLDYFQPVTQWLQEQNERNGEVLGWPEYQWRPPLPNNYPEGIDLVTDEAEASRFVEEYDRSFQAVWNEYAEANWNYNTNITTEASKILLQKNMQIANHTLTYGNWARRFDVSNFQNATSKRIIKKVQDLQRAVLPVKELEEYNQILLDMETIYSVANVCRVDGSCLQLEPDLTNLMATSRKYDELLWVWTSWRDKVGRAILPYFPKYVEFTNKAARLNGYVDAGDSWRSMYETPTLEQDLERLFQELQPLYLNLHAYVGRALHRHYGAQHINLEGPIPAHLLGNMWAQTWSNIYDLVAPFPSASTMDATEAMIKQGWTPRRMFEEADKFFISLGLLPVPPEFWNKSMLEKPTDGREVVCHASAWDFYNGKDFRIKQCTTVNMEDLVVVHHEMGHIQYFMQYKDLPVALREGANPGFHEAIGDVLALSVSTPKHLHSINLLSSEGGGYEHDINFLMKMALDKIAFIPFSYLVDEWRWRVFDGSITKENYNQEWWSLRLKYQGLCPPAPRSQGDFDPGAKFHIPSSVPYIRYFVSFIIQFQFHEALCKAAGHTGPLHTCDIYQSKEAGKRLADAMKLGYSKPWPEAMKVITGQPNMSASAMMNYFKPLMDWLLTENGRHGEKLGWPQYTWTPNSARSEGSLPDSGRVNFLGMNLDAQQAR

[6] = target: T2, angiotensin-I-converting enzyme (ACE); remark: listed apart in the source

Molecule: C[C@H](CS)C(=O)N1CCC[C@H]1C(=O)O [Cap, captopril, reference compound]
- ET-1 content in HUVECs (HUVECs [1]; Cap 1.0 μM): 27.32 ± 1.28 pg/mL
- NO level in HUVECs (HUVECs [2]; Cap treatment): 53.71 ± 2.313 µM

Molecule: NC[C@H](O)c1ccc(O)c(O)c1 [NE, norepinephrine, reference compound]
- ET-1 content in HUVECs (HUVECs [1]; NE 0.5 μM): 73.57 ± 3.09 pg/mL
- NO level in HUVECs (HUVECs [2]; NE treatment (0.5 μM)): 18.59 ± 0.82 µM

Molecule: ACKEP [literature ACEi peptide]
- IC50 (ACE [3]): 126 µM

Molecule: FRKE [literature ACEi peptide]
- ACEi IC50 (ACE [3]): 6970 µg/mL

Molecule: IYSP [literature ACEi peptide]
- affinity with ACE (docking) (ACE [4]): -8.3 kcal/mol

Molecule: KFYG [literature ACEi peptide]
- IC50 (ACE [3]): 90.5 µM

Molecule: LAPPSTRH [literature ACEi peptide]
- ACEi IC50 (ACE [3]): 1310 µg/mL

Molecule: LSFR [literature ACEi peptide]
- affinity with ACE (docking) (ACE [4]): -8.5 kcal/mol

Molecule: LVLL [literature ACEi peptide]
- affinity with ACE (docking) (ACE [4]): -8.6 kcal/mol

Molecule: MVGSAPGVL [literature ACEi peptide]
- ACEi IC50 (ACE [3]): 3090 µg/mL

Molecule: NFRPQ [literature ACEi peptide]
- ACEi IC50 (ACE [3]): 4280 µg/mL

Molecule: SHGEY [literature ACEi peptide]
- affinity with ACE (docking) (ACE [4]): -8.7 kcal/mol

Molecule: SPYGF [literature ACEi peptide]
- affinity with ACE (docking) (ACE [4]): -9.7 kcal/mol

Molecule: SWISS [literature ACEi peptide]
- affinity with ACE (docking) (ACE [4]): -8.6 kcal/mol

Molecule: YEGDP [literature ACEi peptide]
- affinity with ACE (docking) (ACE [4]): -8.8 kcal/mol

Molecule: YLRLHF [literature ACEi peptide]
- ACEi IC50 (ACE [3]): 1260 µg/mL

Molecule: YVVF [literature ACEi peptide]
- affinity with ACE (docking) (ACE [4]): -9.8 kcal/mol

B1: TRP12 (WSPGF; Trp-Ser-Pro-Gly-Phe) (peptide)
peptide: WSPGF
- ACEi rate (percent inhibition of ACE activity) of the RP-HPLC isolated peptide at 1.5 mg/mL [5]: 78.2%
- ACEi activity (IC50): inhibition of ACE enzyme activity, substrate FAPGG, 37°C, product measured by HPLC at 228 nm [6]: 670 µg/mL

B2: TRP3 (WGESF; Trp-Gly-Glu-Ser-Phe) (peptide)
peptide: WGESF
- ACEi rate (percent inhibition of ACE activity) of the RP-HPLC isolated peptide at 1.5 mg/mL [5]: 69.5%
- ACEi activity (IC50): inhibition of ACE enzyme activity, substrate FAPGG, 37°C, product measured by HPLC at 228 nm [6]: 930 µg/mL

B3: TRP6 (IKSW; Ile-Lys-Ser-Trp) (peptide)
peptide: IKSW
- ACEi rate (percent inhibition of ACE activity) of the RP-HPLC isolated peptide at 1.5 mg/mL [5]: 75.4%
- ACEi activity (IC50): inhibition of ACE enzyme activity, substrate FAPGG, 37°C, product measured by HPLC at 228 nm [6]: 790 µg/mL

B4: TRP9 (YSHM; Tyr-Ser-His-Met) (peptide)
peptide: YSHM
- ACEi rate (percent inhibition of ACE activity) of the RP-HPLC isolated peptide at 1.5 mg/mL [5]: 83.5%
- ACEi activity (IC50): inhibition of ACE enzyme activity, substrate FAPGG, 37°C, product measured by HPLC at 228 nm [6]: 490 µg/mL
